Experimental data published in US20250057928A1, “VACCINE COMPOSITION FOR INDUCING ANTI-IL-23 ANTIBODY” (OSAKA UNIVERSITY, priority 2021, published 2025).
Where no end group is shown, it is not given here.

Legend:
epitope peptide = experiment: Antibody titer (GMT) of serum of hairless rats, ELISA; assay type: in vivo, rat; conditions: 1 mg/body intradermal 3 times at two-week intervals, serum at 6 weeks
Procedure: AJP001 conjugated peptide having one of the B cell epitope sequences of SEQ ID NOs: 1-5 was dissolved in physiological saline and intradermally administered twice to BALB/c mice (female, 6-week-old, N=5-6) at 0.5 mg/body at 2-week intervals. Blood was collected before administration and 5 weeks after the initial administration, and the antibody titer against each AJP001 conjugated peptide and the binding ability to recombinant mouse IL-23 protein (rmIL-23) were measured by the ELISA method. Specifically, a 96-well plate immobilized with an epitope peptide dissolved at 10 μg/mL in carbonate buffer was blocked with 5% skim milk/PBS, and then serum serially diluted with 5% skim milk/PBS was added, and the mixture was left standing at 4° C. overnight. […] After washing the wells with PBS-T, TMB solution (SIGMA) was added, the wells were allowed to stand for 30 min in the dark, the reaction was stopped by adding 0.5M H2SO4, and the absorbance at 450 nm was measured using a plate reader. The serum dilution rate that gave 1/2 (OD=1.75) of the maximum absorbance was defined as the antibody titer, and the geometric mean titer: GMT was calculated from the individual values. Binding to IL-23 protein was measured by the ELISA method in the same manner as the antibody titer, using rmIL-23 (Antibodies-online GmbH) as the solid-phased antigen and goat serum for blocking. […]

BALB/c mice [1] = experiment: rmIL-23-induced mouse auricle inflammation model; assay type: in vivo
Procedure: AJP001 conjugated peptide (SEQ ID NO: 2) was dissolved in physiological saline and intradermally administered to BALB/c mice (female, 6-week-old, N=8) at 1 mg/body 3 times at two-week intervals. At the time point of 6 weeks after the initial administration, rmIL-23 was administered intradermally to the ear to induce inflammation. With the first administration as Day 0, rmIL-23 was administered 4 times in total on Days 2, 4, and 7. As a control group, an rmIL-23 group without administration of peptide was provided. Auricular thickness was measured using a thickness gauge on each day of administration of rmIL-23 and on Day 9. In order to measure the mRNA expression of IL-17A, IL-22, IL-1β, LCN-2, and CXCL-2 in the auricle, the auricle was collected on the third day of rmIL-23 administration under the same conditions. For mRNA evaluation, a normal group without administration of rmIL-23 was set. […] Using TaqMan Gene Expression Assays (S18: Mm02601777_g1; CXCL-2: Mm00436450_m1; IL-17A: Mm00439618_m1; IL-22: Mm01226722_m1; IL-1β: Mm00434228_m1; LCN-2: Mm01324470_m1), Ct value was measured using Applied Biosystems 7900HT Fast Real Time PCR System. The mRNA expression level was calculated by the ΔΔCt method and evaluated as a relative value to the normal group. […]

BALB/c mice [2] = experiment: rhIL-23-induced mouse auricle inflammation model; assay type: in vivo; conditions: 1 mg/body 3 times
Procedure: AJP001 conjugated peptide (SEQ ID NO: 6) was dissolved in physiological saline and administered to BALB/c mice (female, 6-week-old, N=8) at 1 mg/body 3 times at two-week intervals. At the time point of 6 weeks after the initial administration, rhIL-23 was administered intradermally to the ear to induce inflammation. rhIL-23 was administered every day and 4 times in total. As a control group, an rhIL-23 group without administration of AJP001 conjugated peptide was provided. Auricular thickness was measured using a thickness gauge at the time points of 3 days and 4 days after rhIL-23 administration. In addition, the mRNA expression of IL-17A, IL-22, IL-1β, LCN-2, and CXCL-2 in the auricle was measured. The results of efficacy evaluation of the AJP001 conjugated peptide (SEQ ID NO: 6) on auricular thickness and mRNA expression are shown in FIG. 6. In FIG. 6, “*” means that it is significant (P<0.05) compared with “rhIL-23”. “#” means that it is significant (P<0.05) compared with “Normal (normal group)”.

| Substance | antibody titer (GMT) (epitope peptide) | mRNA expression of IL-17A, IL-22, IL-1β, LCN-2, and CXCL-2 in auricle (BALB/c mice [1]; 1 mg/body 3 times, third day of rmIL-23 administration) | increase in auricular thickness (BALB/c mice [1]; 1 mg/body intradermal 3 times, rmIL-23 intradermal to ear from week 6) | mRNA expression of IL-17A, IL-22, IL-1β, LCN-2, and CXCL-2 in auricle (BALB/c mice [2]; rhIL-23 to ear) | increase in auricular thickness (BALB/c mice [2]; rhIL-23 to ear daily 4 times from week 6, day 3 and 4) |
| --- | --- | --- | --- | --- | --- |
| SEQ ID NO 2: AJP001-Ahx-B cell epitope peptide conjugate; epitope SSSQQWQR (mouse 152-159) (not fully specified (N-terminus); listed as Mus musculus) | increase | suppressive action | suppressive action | – | – |
| SEQ ID NO 6: AJP001-Ahx-B cell epitope peptide conjugate; epitope SPSQPWQR (human 151-158) (not fully specified (N-terminus); listed as Homo sapiens) | – | – | – | suppressive action | suppressive action |
